These results are taken from US6235738A, “Diphenyl-substituted heterocycles with 6-membered ring, processes for the preparation thereof and the use thereof as medicaments” (Boehringer Ingelheim Pharma KG, priority 1998, dated 2001).

The target of assay [1] is Na^+ canal site 2 binding site. The assay is described as follows: Affinity for the "Na^+ canal site 2" binding site. The note with it: tests typically at a test concentration of 10 μM. As for the experimental part: The test of affinity for the "Na^+ canal site 2" binding site was carried out as described by G. B. Brown (J. Neurosci. 6 (1986) 2064). Tests were carried out typically at a test concentration of 10 μM.

A further assay concerns AMPA receptor. The assay is described as follows: Inhibition of the signal induced by kainate on AMPA receptor (electrophysiology on neuronal cells, Patch-Clamp method). In kind it is cell-based. The note with it: concentration not given. As for the experimental part: The effected on AMPA receptor was tested by electrophysiology on neuronal cells (Patch-Clamp method) (M. L. Mayer, L. Vyklicky and G. L. Westbrook, J. Physiol. 415(1989) 329-350).
Inhibition of the signal induced by kainate on AMPA receptor

Regarding `CN(C)CCOc1ccccc1-c1ccnc(-c2ccccc2)n1` [Example 4, 4-{2-[2-(N,N-Dimethylamino)ethyl]oxy-phenyl}-2-phenyl-pyrimidine], the Ki in assay [1] came out at 4000 nM. The “AMPA Inh.” value with AMPA receptor is 96%.
`CN(C)CCOc1ccccc1-c1ncnc(-c2ccccc2)n1` [Example 6, 2-{2-[2-(N,N-Dimethylamino)ethyl]oxy-phenyl}-4-phenyl-1,3,5-triazine]: affinity in assay [1] was put at a Ki of 2800 nM. Moreover, in the assay with AMPA receptor, the “AMPA Inh.” value was 66%.
The matching figures for `CN(C)CCOc1ccccc1-c1cnnc(-c2ccccc2)n1` [Example 7, 5-{2-[2-(N,N-Dimethylamino)ethyl]oxy-phenyl}-3-phenyl-1,2,4-triazine]: 2400 nM and 98%.
In the case of `CN(C)CCOc1ccccc1-c1nncc(-c2ccccc2)n1` [Example 8, 3-{2-[2-(N,N-Dimethylamino)ethyl]oxy-phenyl}-5-phenyl-1,2,4-triazine], the “AMPA Inh.” value with AMPA receptor is 95%.
